Reference: patent US7618630B2, “Methods of treating multiple myeloma and myeloma-induced bone resorption using integrin antagonists” (Board of Regents, The University of Texas System, priority 1998, dated 2009)
Entries after “also recorded” stand apart in the source; their conditions may differ.

How the values were obtained:
[1] = tested on: 5TGM1 mouse myeloma cells; assay: α4Ab and melphalan in 5TGM1-inoculated xid-nu-bg mice; type: in vivo
Experimental: Here, we studied the effects of a neutralizing antibody to α4 integrin (α4Ab), which disrupts stromal cells/myeloma cell interactions, on the sensitivity of myeloma to melphalan, a most widely-used chemotherapeutic agent for myeloma, using the 5TGM1 mouse myeloma cells that reproducibly cause extensive osteolysis in tumor-bearing animals. The α4Ab (100-200 μg/mouse, i.p., 2 or 3 times a week) and melphalan (50, 100, 200 μg/mouse, i.p., once a week) were administered following inoculation of 5TGM1 cells in the tail vein in male xid-nu-bg mice.

5TGM1 myeloma cells [2] = assay: Survival by onset of hindleg paralysis of 5TGM1-bearing mice, melphalan and PS/2 mAb; type: in vivo, scid/nu/bg mice
Experimental: We also examined the effects of the combined administration of melphalan (100 μg/mouse) and PS/2 mAb on survival of 5TGM1-bearing mice (scid/nu/bg mice). We evaluated survival by the onset of hindleg paralysis (i.e., the onset of hindleg paralysis was the end-point in these experiments). […] Thus, we can reduce the dose of Melphalan to a quarter in the presence of the anti-α4Ab, as compared to melphalan alone.

5TGM1 myeloma cells [3] = assay: Combined effects of melphalan and anti-alpha 4 integrin Ab in 5TGM1 model (scid/nu/bg mice, day 28); type: in vivo; settings: mAb 200 μg first week then 100 μg, melphalan three times
Experimental: In one particular set of experiments on the combined effects of melphalan and anti-alpha 4 integrin Ab in 5TGM1 model, as shown in an experimental protocol in FIG. 7, an initial high dose of 200 μg mAb was given during the first week, followed by a maintenance dose of 100 μg. Melphalan was given three times. Animals (scid/nu/bg mice) were sacrificed at day 28 and serum IgG2b levels (a surrogate marker of tumor burden) and tumor burden in bone were measured (histomorphometric analysis of bones). […] The data were a summary of two experiments combined.

GFP+ 5TGM1 myeloma cells = assay: Combination treatment with PS/2 and melphalan in C57BL/KaLwRij model of multiple myeloma; type: in vivo, C57BL/KaLwRij mice; settings: day 27
Source text: Additive/synergistic effects of the combination of PS/2 mAb and melphalan were seen under most conditions. In these experiments, the 5TGM1 cells injected into the animals were transfected with an expression vector containing the GFP gene. These myeloma cells expressed the GFP protein, allowing the myeloma cells to be tracked directly as GFP+ myeloma cells. These myeloma cells could also be tracked as mIgG2b positive cells. The data were only useful on day 27.

VLA-4 and VLA-5 = settings: cited from earlier work
VLA-4 = VLA-4 (Homo sapiens, UniProt P05556+P13612); settings: cited from earlier work
VLA-4, sequence (P13612 34-1032): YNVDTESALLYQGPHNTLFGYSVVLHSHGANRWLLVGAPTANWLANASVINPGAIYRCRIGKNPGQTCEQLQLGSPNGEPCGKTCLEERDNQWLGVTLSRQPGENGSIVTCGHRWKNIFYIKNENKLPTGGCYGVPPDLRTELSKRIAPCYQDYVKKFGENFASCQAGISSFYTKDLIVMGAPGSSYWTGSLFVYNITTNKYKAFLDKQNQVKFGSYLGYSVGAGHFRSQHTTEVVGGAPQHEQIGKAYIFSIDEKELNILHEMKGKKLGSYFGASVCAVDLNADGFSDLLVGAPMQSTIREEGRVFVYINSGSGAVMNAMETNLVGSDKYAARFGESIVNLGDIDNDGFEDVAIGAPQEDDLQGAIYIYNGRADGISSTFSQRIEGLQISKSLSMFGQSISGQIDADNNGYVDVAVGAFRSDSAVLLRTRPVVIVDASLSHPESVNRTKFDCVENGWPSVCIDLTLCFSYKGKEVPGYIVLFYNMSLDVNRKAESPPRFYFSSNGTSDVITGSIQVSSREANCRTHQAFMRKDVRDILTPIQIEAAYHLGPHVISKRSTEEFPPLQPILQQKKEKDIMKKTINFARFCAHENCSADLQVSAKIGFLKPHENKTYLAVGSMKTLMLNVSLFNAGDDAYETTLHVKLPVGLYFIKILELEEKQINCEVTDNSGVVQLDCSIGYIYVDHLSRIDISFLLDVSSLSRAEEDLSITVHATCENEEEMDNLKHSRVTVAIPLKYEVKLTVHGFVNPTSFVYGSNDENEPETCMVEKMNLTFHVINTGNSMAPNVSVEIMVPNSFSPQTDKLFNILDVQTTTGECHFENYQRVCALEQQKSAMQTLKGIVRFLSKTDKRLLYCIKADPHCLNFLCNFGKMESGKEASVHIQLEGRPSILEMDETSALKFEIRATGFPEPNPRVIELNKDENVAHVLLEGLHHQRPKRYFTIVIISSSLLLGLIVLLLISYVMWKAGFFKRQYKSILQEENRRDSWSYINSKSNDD
VLA-4, sequence (P05556 21-798): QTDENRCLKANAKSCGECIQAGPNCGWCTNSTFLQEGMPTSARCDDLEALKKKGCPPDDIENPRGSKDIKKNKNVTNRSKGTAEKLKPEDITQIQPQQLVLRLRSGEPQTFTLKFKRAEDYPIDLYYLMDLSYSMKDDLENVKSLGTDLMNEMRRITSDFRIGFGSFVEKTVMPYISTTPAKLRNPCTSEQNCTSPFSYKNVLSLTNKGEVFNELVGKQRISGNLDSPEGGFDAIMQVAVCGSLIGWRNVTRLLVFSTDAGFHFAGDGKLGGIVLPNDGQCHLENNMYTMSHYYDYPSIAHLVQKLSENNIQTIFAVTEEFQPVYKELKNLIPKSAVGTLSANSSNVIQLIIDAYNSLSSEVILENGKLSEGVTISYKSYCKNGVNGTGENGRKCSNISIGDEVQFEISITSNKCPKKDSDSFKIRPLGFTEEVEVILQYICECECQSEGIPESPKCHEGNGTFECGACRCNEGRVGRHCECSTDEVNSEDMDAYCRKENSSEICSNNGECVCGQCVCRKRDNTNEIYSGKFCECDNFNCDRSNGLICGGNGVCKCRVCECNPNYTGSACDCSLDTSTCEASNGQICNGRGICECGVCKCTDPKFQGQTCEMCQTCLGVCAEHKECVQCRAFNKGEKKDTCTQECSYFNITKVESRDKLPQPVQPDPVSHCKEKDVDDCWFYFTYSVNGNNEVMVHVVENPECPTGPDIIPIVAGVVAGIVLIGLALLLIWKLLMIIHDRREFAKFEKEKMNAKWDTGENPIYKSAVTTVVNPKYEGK

[4] = target: VCAM-1 expressed on ST2 mouse bone marrow stromal cells (murine) (UniProt P29533); assay: cell-based or functional assay
VCAM-1 expressed on ST2 mouse bone marrow stromal cells (murine), sequence (P29533 25-739): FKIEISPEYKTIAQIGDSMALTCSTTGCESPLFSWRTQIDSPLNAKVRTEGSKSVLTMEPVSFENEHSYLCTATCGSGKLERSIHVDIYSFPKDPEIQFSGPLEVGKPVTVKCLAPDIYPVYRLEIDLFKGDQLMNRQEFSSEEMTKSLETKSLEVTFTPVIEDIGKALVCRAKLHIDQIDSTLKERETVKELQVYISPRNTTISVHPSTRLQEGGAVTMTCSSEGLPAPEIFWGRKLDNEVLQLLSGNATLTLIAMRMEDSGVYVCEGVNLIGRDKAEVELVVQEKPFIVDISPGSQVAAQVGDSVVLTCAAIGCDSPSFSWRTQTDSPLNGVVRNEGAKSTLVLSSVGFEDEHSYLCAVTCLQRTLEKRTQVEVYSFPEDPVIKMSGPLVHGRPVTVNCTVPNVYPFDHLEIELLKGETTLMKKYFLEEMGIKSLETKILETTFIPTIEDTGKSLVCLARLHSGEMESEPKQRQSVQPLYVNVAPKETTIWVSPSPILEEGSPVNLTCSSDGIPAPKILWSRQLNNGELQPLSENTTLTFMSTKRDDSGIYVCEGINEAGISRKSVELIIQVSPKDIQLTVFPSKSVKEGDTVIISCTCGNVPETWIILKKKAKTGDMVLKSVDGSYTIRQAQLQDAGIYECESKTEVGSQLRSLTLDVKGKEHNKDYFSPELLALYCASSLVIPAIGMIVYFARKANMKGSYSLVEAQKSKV

[5] = target: integrin VLA-4 expressed on 5TGM1 murine myeloma cells (murine) (UniProt Q00651); assay: cell-based or functional assay
integrin VLA-4 expressed on 5TGM1 murine myeloma cells (murine), sequence (Q00651 41-1039, chain 1 of 2): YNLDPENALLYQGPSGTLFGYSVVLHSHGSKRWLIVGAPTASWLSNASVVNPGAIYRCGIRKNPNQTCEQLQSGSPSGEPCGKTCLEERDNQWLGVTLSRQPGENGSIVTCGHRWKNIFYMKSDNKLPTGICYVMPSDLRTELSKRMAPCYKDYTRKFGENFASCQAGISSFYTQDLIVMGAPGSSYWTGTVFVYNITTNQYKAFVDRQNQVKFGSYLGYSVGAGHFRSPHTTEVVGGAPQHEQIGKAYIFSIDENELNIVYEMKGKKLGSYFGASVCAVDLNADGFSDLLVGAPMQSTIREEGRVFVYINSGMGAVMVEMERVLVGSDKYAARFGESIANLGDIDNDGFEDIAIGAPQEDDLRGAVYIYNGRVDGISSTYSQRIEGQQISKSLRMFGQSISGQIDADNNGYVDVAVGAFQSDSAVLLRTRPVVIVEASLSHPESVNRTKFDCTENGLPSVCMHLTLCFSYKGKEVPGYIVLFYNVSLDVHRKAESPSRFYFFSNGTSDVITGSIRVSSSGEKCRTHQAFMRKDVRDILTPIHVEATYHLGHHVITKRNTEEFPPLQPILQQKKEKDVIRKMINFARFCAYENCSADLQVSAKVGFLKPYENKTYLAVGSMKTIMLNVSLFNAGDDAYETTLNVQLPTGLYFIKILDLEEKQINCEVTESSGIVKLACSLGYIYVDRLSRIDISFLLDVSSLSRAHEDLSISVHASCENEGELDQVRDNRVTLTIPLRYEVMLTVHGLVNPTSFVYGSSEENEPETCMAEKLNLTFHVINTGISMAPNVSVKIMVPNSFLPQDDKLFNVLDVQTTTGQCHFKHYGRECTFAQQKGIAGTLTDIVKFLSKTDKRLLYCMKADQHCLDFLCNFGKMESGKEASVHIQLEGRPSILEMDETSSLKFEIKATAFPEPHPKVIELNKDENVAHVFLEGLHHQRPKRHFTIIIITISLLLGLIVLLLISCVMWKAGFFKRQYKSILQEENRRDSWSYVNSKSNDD
integrin VLA-4 expressed on 5TGM1 murine myeloma cells (murine), sequence (P09055 21-798, chain 2 of 2, further chain): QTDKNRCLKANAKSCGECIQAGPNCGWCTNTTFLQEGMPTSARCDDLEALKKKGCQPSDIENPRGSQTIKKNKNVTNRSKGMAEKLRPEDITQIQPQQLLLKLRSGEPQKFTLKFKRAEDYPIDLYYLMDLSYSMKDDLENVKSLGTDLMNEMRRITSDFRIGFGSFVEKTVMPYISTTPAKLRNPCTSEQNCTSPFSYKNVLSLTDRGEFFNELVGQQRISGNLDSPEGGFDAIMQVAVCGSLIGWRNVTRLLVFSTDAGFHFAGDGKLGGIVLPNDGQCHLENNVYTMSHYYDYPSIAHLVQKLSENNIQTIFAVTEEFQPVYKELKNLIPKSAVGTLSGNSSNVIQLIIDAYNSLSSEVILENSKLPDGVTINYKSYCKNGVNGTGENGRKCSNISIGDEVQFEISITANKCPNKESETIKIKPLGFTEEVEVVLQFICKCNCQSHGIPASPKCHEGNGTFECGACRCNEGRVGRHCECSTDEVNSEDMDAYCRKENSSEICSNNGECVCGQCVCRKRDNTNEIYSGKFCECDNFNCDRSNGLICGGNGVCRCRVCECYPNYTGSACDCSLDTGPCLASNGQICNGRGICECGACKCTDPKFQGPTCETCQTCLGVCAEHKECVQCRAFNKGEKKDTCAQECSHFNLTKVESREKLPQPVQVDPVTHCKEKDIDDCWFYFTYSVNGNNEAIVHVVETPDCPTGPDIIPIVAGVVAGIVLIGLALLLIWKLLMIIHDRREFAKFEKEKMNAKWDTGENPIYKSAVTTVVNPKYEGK

5TGM1 cells = assay: Osteoclastogenic activity of conditioned medium of sVCAM-1-treated 5TGM1 cells in mouse marrow cultures; type: cell-based; settings: 6 days, 1×10^−7 M sVCAM-1
Experimental: Conditioned medium was harvested from 5TGM1 cells cultured in the presence or absence of sVCAM-1 (1×10^−8 to 1×10^−7 Molar) for 24 hours. Osteoclastogenic activity of these conditioned media was assayed in the mouse marrow cultures. Bone marrow cells (1e6/well) were plated into 48-well plates, and cultured in the presence of conditioned media (hatched bars) or control medium (IMDM) containing the same concentrations of sVCAM-1 (open bars). After 6 days, cultures were fixed and the number of TRAP-positive multinucleated OC-like cells (TRAP+MNC) was determined.

[6] = tested on: 45Ca-labeled fetal rat long bones; assay: Bone resorption in organ cultures of 45Ca-labeled fetal rat long bones; type: cell-based
Experimental: Conditioned media harvested from 5TGM1 cultures were assayed for bone-resorbing activity by organ cultures of 45Ca-labeled fetal rat long bones as described previously (Mbalaviele 1995). Pregnant rats were injected with 250 uCi of 45Ca (New England Nuclear) on the 18th day of gestation. Radius and ulna bone shafts were obtained from 19-day fetuses by microdissection, and precultured for 24 h in BGJ medium (Sigma) supplemented with 0.1% BSA between air and liquid-phase on stainless mesh grids. Bones were then cultured in the presence of conditioned media (50% v/v) or in control medium for 120 hours. The media were changed once at 48 hours. At the end of the culture, bones were incubated in ice-cold 5% trichloroacetic acid for 2 h, and 45Ca radioactivity in bones and media determined in a liquid scintillation counter. Bone resorption was quantitated as the percentage of 45Ca released into the medium from bones as calculated by: (45Ca count in medium)/(45Ca count in medium and bone)×100.

Rank ligand mRNA = assay: Expression of Rank ligand mRNA in 5TGM1 and ST2 cells; type: cell-based, mouse
Source text: Because Rank ligand appears to be an important mediator of OCL formation and may be the final common pathway for the effects of osteoclastogenic cytokines on OCL formation, we have examined the expression of Rank ligand in 5TGM1 and ST2 cells both individually and when cocultured. We find that coculture of 5TGM1 and ST2 cells induces Rank ligand mRNA in the ST2 cells.

For N[C@@H](Cc1ccc(N(CCCl)CCCl)cc1)C(=O)O [melphalan], the “serum IgG2 levels” value ([1]; melphalan alone 200 μg/mouse) was “significantly suppressed”, the “serum IgG2 levels” value ([1]; melphalan alone 50 and 100 μg/mouse i.p. once a week) was “failed to suppress serum IgG2 levels” and the “onset of hindleg paralysis” value (5TGM1 myeloma cells [2]; melphalan 100 μg/mouse and/or anti-α4Ab) was “had no effect on the onset of hindleg paralysis”. For the same molecule, the “onset of hindleg paralysis” value (5TGM1 myeloma cells [2]; melphalan alone 200 μg/mouse) was “significantly delayed the onset”, the “serum IgG2b levels” value (5TGM1 myeloma cells [3]) was “only modestly affected” and the mIgG2b plasma levels (GFP+ 5TGM1 myeloma cells) was “unaffected”. For the same molecule, the “percentage of GFP+ myeloma cells in blood” value (GFP+ 5TGM1 myeloma cells) was “unaffected”, the “percentage of GFP+ myeloma cells in bone marrow” value (GFP+ 5TGM1 myeloma cells) was “Neither melphalan nor PS/2 mAb alone affected” and the “percentage of GFP+ myeloma cells in spleen” value (GFP+ 5TGM1 myeloma cells) was “unaffected”.

For Arg-Cys-Asp-TPro-Cys, the “inhibition of VLA-4 and VLA-5 adhesion to fibronectin” value (VLA-4 and VLA-5) is given as “can inhibit both VLA-4 and VLA-5 adhesion to fibronectin”.

For “Glu-Ile-Leu-Asp-Val (EILDV) [pentapeptide of the fibronectin CS-1 region]”, the “inhibitory activity against fibronectin-dependent cell adhesion” value (VLA-4) is given as “possessed inhibitory activity against fibronectin-dependent cell adhesion”.

For “Leu-Asp-Val-Pro-Ser (LDVPS) [pentapeptide of the fibronectin CS-1 region]”, the “inhibitory activity against fibronectin-dependent cell adhesion” value (VLA-4) is listed as “possessed inhibitory activity against fibronectin-dependent cell adhesion”.

With mAb M/K-2.7 to murine VCAM-1 (antibody) the attachment of 5TGM1 cells to ST2 monolayers [4] was 50 to 80%.

Molecule mAb PS/2 to VLA-4 (antibody) has an attachment of 5TGM1 cells to ST2 monolayers [5] of 50 to 80%.

B1: sVCAM-1: recombinant soluble VCAM-1 containing the 7 extracellular domains of human VCAM-1 (protein)
chain: FKIETTPESRYLAQIGDSVSLTCSTTGCESPFFSWRTQIDSPLNGKVTNEGTTSTLTMNPVSFGNEHSYLCTATCESRKLEKGIQVEIYSFPKDPEIHLSGPLEAGKPITVKCSVADVYPFDRLEIDLLKGDHLMKSQEFLEDADRKSLETKSLEVTFTPVIEDIGKVLVCRAKLHIDEMDSVPTVRQAVKELQVYISPKNTVISVNPSTKLQEGGSVTMTCSSEGLPAPEIFWSKKLDNGNLQHLSGNATLTLIAMRMEDSGIYVCEGVNLIGKNRKEVELIVQEKPFTVEISPGPRIAAQIGDSVMLTCSVMGCESPSFSWRTQIDSPLSGKVRSEGTNSTLTLSPVSFENEHSYLCTVTCGHKKLEKGIQVELYSFPRDPEIEMSGGLVNGSSVTVSCKVPSVYPLDRLEIELLKGETILENIEFLEDTDMKSLENKSLEMTFIPTIEDTGKALVCQAKLHIDDMEFEPKQRQSTQTLYVNVAPRDTTVLVSPSSILEEGSSVNMTCLSQGFPAPKILWSRQLPNGELQPLSENATLTLISTKMEDSGVYLCEGINQAGRSRKEVELIIQVTPKDIKLTAFPSESVKEGDTVIISCTCGNVPETWIILKKKAETGDTVLKSIDGAYTIRKAQLKDAGVYECESKNKVGSQLRSLTLDVQGRENNKDYFSPE
With B1 the “OC-like cell (TRAP(+)MNC) formation by conditioned medium from 5TGM1 cells treated with sVCAM-1” value (5TGM1 cells) was “showed increased activity of OC-like cell formation; also recorded: increased TRAP(+)MNC formation”, the “bone resorption by conditioned medium of 5TGM1 treated with sVCAM-1” value [6] was “increased bone resorption in fetal rat long bones in a dose-dependent manner” and the “bone resorption, soluble VCAM-1 itself” value [6] was “had no effects on bone resorption”. For the same molecule, the “Rank ligand expression in 5TGM1 cells” value (Rank ligand mRNA; 5TGM1 cells treated with sVCAM-1) was “they do so when treated with sVCAM-1” and the “Rank ligand mRNA in ST2 cells” value (Rank ligand mRNA; conditioned medium from 5TGM1 cells treated with sVCAM-1) was “induced Rank ligand mRNA in ST2 cells”.
